Laboratory results: patent US20250230138A1, “COMPOUNDS HAVING A T-STRUCTURE FORMED BY AT LEAST FOUR CYCLES FOR USE IN THE TREATMENT OF CANCER AND OTHER INDICATIONS” (TheRas, Inc., priority 2022, published 2025)
Like-named read-outs stand apart in the source and are kept apart here.

Key:
[1] = target: Cys242 in human PIK3CA (157-299) (Homo sapiens (Human), UniProt P42336); experiment: Covalent modification assay using MALDI-TOF MS; type: biochemical; conditions: 4 h reaction time point
How it was run: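 PIK3CA (157-299) at 3.33 μM or 1 μM in 20 mM HEPES, 150 mM NaCl, 2 mM MgCl2, pH 7.3 was incubated with compound (from 10 mM DMSO stocks) in the dark at room temperature for 15 min, 30 min, 2 h or 4 h. Linear-mode MALDI-TOF peak heights gave percent modification.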

pAKT in BT474 cells = experiment: Cell-based pAKT HTRF assay in BT474 cells; conditions: BT474 cells, 4 hr incubation, read-out: pAKT inhibition IC50 in BT474 cells
How it was run: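 9-pt curve, top 3 μM, 3-fold steps, 0.25% DMSO; 4 hr compound exposure. Lysis, then HTRF with d2/Eu Cryptate antibody pair, 4–24 h RT. Ex 320 nm, Em 615 nm.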

[2] = 3.33 μM protein target, 1:7.5 protein to compound ratio (compounds 1-852)
[3] = 1 μM protein target, 1:5 protein to compound ratio (compounds 853-1279)

Chain of Cys242 in human PIK3CA (157-299) (P42336 157-299): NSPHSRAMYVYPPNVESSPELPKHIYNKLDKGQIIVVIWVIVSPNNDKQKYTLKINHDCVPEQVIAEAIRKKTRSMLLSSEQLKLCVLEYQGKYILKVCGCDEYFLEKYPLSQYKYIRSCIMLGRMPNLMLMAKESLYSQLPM

Row | SMILES | % of modification [1, 2] | IC50 (pAKT in BT474 cells; Compounds 10-999) | % of modification [1, 3] | IC50 (pAKT in BT474 cells; Compounds 1000-1279)
1 | C=CC(=O)N1Cc2cc(-c3nc(-c4cnn(C)c4)c4ccsc4c3-c3c(F)cc(F)cc3OCCO)nn2C[C@H]1C [Compound 673] | D (percent of modification <25%) | 100 to 1000 nM |  | 
2 | C=CC(=O)N1Cc2cc(-c3nc(-c4cnc5c(cnn5C)c4)c4ccsc4c3-c3c(F)cc(F)cc3OCCO)nn2C[C@H]1C [Compound 885] |  | < 100 nM | A (percent of modification of PIK3CA protein ≥75%) | 
3 | C=C(F)C(=O)N1CCn2nc(-c3nc(-c4cnc5c(c4)CN(C)CC5)c4ccsc4c3-c3c(F)cc(F)cc3OC(C)C)cc2C1 [Compound 340] | B (50%<percent of modification <75%) | < 100 nM |  | 
4 | C=CC(=O)N1CCc2nc(-c3nc(N4CCN(C(C)C)C(=O)C4)c4ccsc4c3-c3ccc(F)cc3OCCOC)sc2C1 [Compound 176] | A (percent of modification of PIK3CA protein ≥75%) | 100 to 1000 nM |  | 
5 | C=CC(=O)N1Cc2cc(-c3nc(-c4ccc5c(c4)C(=O)NC5)c4ccsc4c3-c3c(F)cc(F)cc3OC)nn2C[C@H]1C [Compound 837] | A (percent of modification of PIK3CA protein ≥75%) | < 100 nM |  | 
6 | C=CC(=O)N1CCc2nc(-c3nc(-c4ccc5c(c4)CCN(C)C5)c4ccsc4c3-c3c(F)cc(F)cc3OC(C)C)sc2C1 (single isomer, unassigned) [Compound 447] | D (percent of modification <25%) | 100 to 1000 nM |  | 
7 | C=CC(=O)N1Cc2cc(-c3nc(-n4cnc(C)c4)c4ccsc4c3-c3c(F)cc(F)cc3OCCOC)nn2C[C@H]1C [Compound 824] | A (percent of modification of PIK3CA protein ≥75%) | < 100 nM |  | 
8 | C=CC(=O)N1Cc2cc(-c3nc(-c4ccc5cn[nH]c5c4)c4ccsc4c3-c3c(F)cc(F)cc3OCCOC)nn2C[C@H]1C [Compound 690] | A (percent of modification of PIK3CA protein ≥75%) | < 100 nM |  | 
9 | C=CC(=O)N1CCn2nc(-c3nc(-c4ccn(C5CN(C)C5)c(=O)c4)c4ccsc4c3-c3c(F)cc(F)cc3OCCOC)cc2C1C (stereo not drawn) [Compound 1080] |  |  | A (percent of modification of PIK3CA protein ≥75%) | < 100 nM
10 | C=CC(=O)N1CC[C@@H](n2ccc(-c3nc(-c4cnn(C)c4)c4ccsc4c3-c3ccc(F)cc3OC(C)C)n2)C1 [Compound 329] | A (percent of modification of PIK3CA protein ≥75%) | 100 to 1000 nM |  | 
11 | C=CC(=O)N1CC(n2cc(-c3nc(N4CCC5(CC4)COC5)c4ccsc4c3-c3ccc(F)cc3OCCOC)cn2)C1 [Compound 122] | A (percent of modification of PIK3CA protein ≥75%) | 100 to 1000 nM |  | 
12 | C=CC(=O)N1CCn2nc(-c3nc(-c4ccc(N5CCN(C)CC5)cc4)c4ccsc4c3-c3c(F)cc(F)cc3OCCO)cc2C1C (stereo not drawn) [Compound 1089] |  |  | A (percent of modification of PIK3CA protein ≥75%) | < 100 nM
13 | C=CC(=O)N1Cc2cc(-c3nc(-c4cnn(CC(F)F)c4)c4ccsc4c3-c3c(F)cc(F)cc3OCCOC)nn2C[C@H]1C [Compound 727] | A (percent of modification of PIK3CA protein ≥75%) | < 100 nM |  | 
14 | C=CC(=O)N1CCn2nc(-c3nc(-c4ccc5ncn(C)c5c4)c4ccsc4c3-c3c(F)cc(F)cc3OCCOC)cc2C1C (stereo not drawn) [Compound 552] | A (percent of modification of PIK3CA protein ≥75%) | < 100 nM |  | 
15 | C=CC(=O)N1Cc2cc(-c3nc(N4CCc5c(cnn5C)C4)c4ccsc4c3-c3c(F)cc(F)cc3OCCOC)nn2CC1C (stereo not drawn) [Compound 949] |  | < 100 nM | A (percent of modification of PIK3CA protein ≥75%) | 
16 | C=CC(=O)N1CC(n2cc(-c3nc(N4CCC5(CC4)CNC5)c4ccsc4c3-c3ccc(F)cc3OCCOC)cn2)C1 [Compound 98] | A (percent of modification of PIK3CA protein ≥75%) | 1000 to 3000 nM |  | 
17 | C=CC(=O)N1CCc2ncc(-c3nc(-c4ccc5c(c4)CS(=O)(=O)C5)c4ccsc4c3-c3ccc(F)cc3OCCOC)cc2C1 [Compound 111] | A (percent of modification of PIK3CA protein ≥75%) | < 100 nM |  | 
18 | C=CC(=O)N1CCn2nc(-c3nc(-c4cn(C)cn4)c4ccsc4c3-c3c(F)cc(F)cc3OCCO)cc2C1C (stereo not drawn) [Compound 786] | A (percent of modification of PIK3CA protein ≥75%) | < 100 nM |  | 
19 | C=CC(=O)N1CCn2nc(-c3nc(-c4ccc5c(c4)CCN(C)CC5)c4ccsc4c3-c3c(F)cc(F)cc3OCCOC)cc2C1C (stereo not drawn) [Compound 994] |  | 100 to 1000 nM | D (percent of modification <25%) | 
20 | C=CC(=O)N1Cc2cc(-c3nc(-c4ccc5nn(C)cc5c4)c4ccsc4c3-c3c(F)cc(F)cc3OCC(C)(C)O)nn2[C@@H](C)C1 [Compound 881] |  | < 100 nM | A (percent of modification of PIK3CA protein ≥75%) | 
21 | C=CC(=O)N1Cc2cc(-c3nc(-c4ccc5[nH]cnc5c4)c4ccsc4c3-c3c(F)cc(F)cc3OCCOC)nn2C[C@H]1C [Compound 720] | A (percent of modification of PIK3CA protein ≥75%) | < 100 nM |  | 
22 | C=C(F)C(=O)N1CCn2nc(-c3nc(-c4ccc5c(c4)CCN(C)C5)c4ccsc4c3-c3c(F)cc(F)cc3OC(C)C)cc2C1 [Compound 342] | B (50%<percent of modification <75%) | < 100 nM |  | 
23 | C=CC(=O)N1CCc2nc(-c3nc(-c4ccc5c(c4)CNC5=O)c4ccsc4c3-c3c(F)cc(F)cc3OC(C)C)sc2C1 (single isomer, unassigned) [Compound 414] | A (percent of modification of PIK3CA protein ≥75%) | < 100 nM |  | 
24 | C=CC(=O)N1Cc2cc(-c3nc(-c4ccc5c(c4)CCN(C)C5)c4ccsc4c3-c3c(F)cc(F)cc3OC(C)C)nn2C[C@H]1C [Compound 479, 1-((R)-2-((S)-7-(2,4-difluoro-6-isopropoxyphenyl)-4-(2-methyl-1,2,3,4-tetrahydroisoquinolin-6-yl)thieno[3,2-c]pyridin-6-yl)-6-methyl-6,7-dihydropyrazolo[1,5-a]pyrazin-5(4H)-yl)prop-2-en-1-one] | A (percent of modification of PIK3CA protein ≥75%) | < 100 nM |  | 
25 | C=CC(=O)N1CCn2nc(-c3nc(-c4cncc(C#N)c4)c4ccsc4c3-c3ccc(F)cc3OC(C)C)cc2C1 [Compound 259] | A (percent of modification of PIK3CA protein ≥75%) | < 100 nM |  | 
26 | C=CC(=O)N1Cc2cc(-c3nc(-c4cnnc(C)c4)c4ccsc4c3-c3c(F)cc(F)cc3OCCOC)nn2[C@@H](C)C1 [Compound 740] | A (percent of modification of PIK3CA protein ≥75%) | < 100 nM |  | 
27 | C=CC(=O)N1Cc2cc(-c3nc(-c4cnc5c(c4)CN(C)C5=O)c4ccsc4c3-c3c(F)cc(F)cc3OC(C)C)nn2C[C@H]1C [Compound 513] | A (percent of modification of PIK3CA protein ≥75%) | < 100 nM |  | 
28 | C=CC(=O)N1CCc2ccc(-c3nc(-c4ccc5c(c4)CN(C)CC5(F)F)c4ccsc4c3-c3c(F)cc(F)cc3OCCOC)cc2C1 [Compound 1272] |  |  | D (percent of modification <25%) | > 1000 nM
29 | C=CC(=O)N1CCn2nc(-c3nc(-c4ccc(=O)[nH]c4)c4ccsc4c3-c3ccc(F)cc3OC(C)C)cc2C1 [Compound 248] | A (percent of modification of PIK3CA protein ≥75%) | < 100 nM |  | 
30 | C=CC(=O)N1CCn2nc(-c3nc(-c4ccc5c(cnn5CCN(C)C)c4)c4ccsc4c3-c3c(F)cc(F)cc3OCCOC)cc2C1C (stereo not drawn) [Compound 1105] |  |  | A (percent of modification of PIK3CA protein ≥75%) | < 100 nM
